The values that follow come from publication PMC10895674, “First-in-Class Dual EZH2-HSP90 Inhibitor Eliciting Striking Antiglioblastoma Activity In Vitro and In Vivo” (Journal of Medicinal Chemistry, 2024).

The target of experiment [1] is EZH2 (Homo sapiens, UniProt Q15910). Nature of the experiment: EZH2 inhibition assay (Reaction Biology Corp.). The class given is biochemical. The note with it: for IC50: 10-dose IC50 mode, 3-fold serial dilution starting at 10 μM, single experiment. How it is done:
The EZH2 inhibitory ability of the synthesized adduct was assessed by Reaction Biology Corporation Malvern, PA. (http://www.reactionbiology.com).

Experiment [2] concerns TMZ-resistant cells (Pt3R). Put plainly: Cell viability CCK8 assay. In kind it is cell-based, human. To be noted: 72 h; for IC50: Homo sapiens, CCK8, read-out: IC50, cell growth inhibitory effects. From the text:
The CCK8 reagent was purchased from TargetMOI (Wellesley Hills, MA) and used according to the manufacturer’s instruction.
A general note: Tetrazolium assays rely on reduction of a dye to a coloured formazan, in cell work by metabolically active cells.

Experiment [3] concerns the target HSP90a (Homo sapiens, UniProt P07900). Nature of the experiment: In vitro Hsp90 assay (Reaction Biology Corp.). In kind it is biochemical. The note with it: for IC50: 10-dose IC50 mode, 3-fold serial dilution starting at 10 μM, single experiment, '-' read as no inhibition. How it is done:
The HSP90 inhibitory activity of the synthesized adduct was assessed by Reaction Biology Corporation Malvern, PA. (http://www.reactionbiology.com).

The test system of experiment [4] is Pt#3-R-induced tumor. Nature of the experiment: In vivo anti-GBM efficacy, Pt3R xenograft. The note with it: intraperitoneally twice per week; TAZ 10 or 20 mg/kg; STA+TAZ 5+5, 10+10, 15+15 mg/kg. How it is done: In vivo anti-GBM efficacy of compound 7 was also evaluated in this study. For the in vivo study, experimental NOD.CB17-Prkdc^scid/NCrCrl mice (8-week-old) were used and Pt3R cells (1 × 10^6) in 50 μL Dulbecco’s modified Eagle’s medium (DMEM) were injected into the back of mice. After 10 days, the tumor was detectable. […] In a nutshell, the outcome of the in vivo study ascertains that the remarkable in vitro anti-GBM activity profile of dual inhibitor 7 was translated to the in vivo potential.
Animal experiments were approved by the institutional animal care and use committee of Taipei Medical University (IACUC: LAC2022-0288). Male NOD.CB17-Prkdc^scid/NCrCrl mice (8-week-old) were purchased from BioLASCO Taiwan Co., Ltd. (Taipei, Taiwan). Pt3R cells (1 × 10^6) in 50 μL of DMEM were injected into the back of mice. Experimental mice were grouped as follows (Figure 11): DMSO (n = 5), C7–10 mg/kg (n = 4), C7–20 mg/kg (n = 6), TAZ-10 mg/kg (n = 6), TAZ-20 mg/kg (n = 8), STA-5+TAZ-5 mg/kg (n = 7), STA-10+TAZ-10 mg/kg (n = 7) and STA-15+TAZ-15 mg/kg (n = 7). After 10 days, the tumor was touchable. Mice were injected intraperitoneally with DMSO (the control group) or compounds twice per week.

Structures are written as SMILES.

By IC50 is commonly meant the concentration needed to halve the response being measured.

Chain of EZH2 (Q15910 whole entry): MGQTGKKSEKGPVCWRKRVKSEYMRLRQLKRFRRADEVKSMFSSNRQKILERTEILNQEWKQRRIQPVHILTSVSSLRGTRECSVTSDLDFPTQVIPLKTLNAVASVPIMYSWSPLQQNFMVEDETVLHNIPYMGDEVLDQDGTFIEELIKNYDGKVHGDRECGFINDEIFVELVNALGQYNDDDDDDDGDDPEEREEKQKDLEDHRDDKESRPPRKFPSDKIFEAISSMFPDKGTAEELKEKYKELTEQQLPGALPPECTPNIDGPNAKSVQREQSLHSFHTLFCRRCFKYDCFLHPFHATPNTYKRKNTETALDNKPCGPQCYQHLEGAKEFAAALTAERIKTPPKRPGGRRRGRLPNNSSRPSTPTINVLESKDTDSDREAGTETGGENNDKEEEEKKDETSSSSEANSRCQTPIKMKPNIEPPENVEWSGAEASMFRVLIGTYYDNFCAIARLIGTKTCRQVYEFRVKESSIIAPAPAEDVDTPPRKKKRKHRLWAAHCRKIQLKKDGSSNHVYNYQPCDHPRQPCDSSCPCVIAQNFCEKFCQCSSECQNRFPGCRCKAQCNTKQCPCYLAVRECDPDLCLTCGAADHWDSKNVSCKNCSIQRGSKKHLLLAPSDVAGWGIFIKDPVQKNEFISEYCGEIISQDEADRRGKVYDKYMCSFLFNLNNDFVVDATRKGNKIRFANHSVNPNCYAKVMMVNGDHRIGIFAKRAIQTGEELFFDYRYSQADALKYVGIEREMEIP
Chain of EZH2 (O75530 whole entry partner): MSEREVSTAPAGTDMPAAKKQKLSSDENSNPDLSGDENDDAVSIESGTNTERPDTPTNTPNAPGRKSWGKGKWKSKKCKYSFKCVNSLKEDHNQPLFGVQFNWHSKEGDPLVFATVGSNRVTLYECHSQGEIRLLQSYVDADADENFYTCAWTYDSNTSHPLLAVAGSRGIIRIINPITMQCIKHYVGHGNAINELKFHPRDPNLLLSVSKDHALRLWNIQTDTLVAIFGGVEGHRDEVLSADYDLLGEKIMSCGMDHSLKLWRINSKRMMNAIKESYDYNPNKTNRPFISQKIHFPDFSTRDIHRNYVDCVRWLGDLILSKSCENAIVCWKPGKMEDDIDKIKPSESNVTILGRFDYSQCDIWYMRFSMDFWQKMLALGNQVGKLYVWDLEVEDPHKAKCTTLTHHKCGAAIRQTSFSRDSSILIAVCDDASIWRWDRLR
Chain of EZH2 (Q15022 whole entry partner): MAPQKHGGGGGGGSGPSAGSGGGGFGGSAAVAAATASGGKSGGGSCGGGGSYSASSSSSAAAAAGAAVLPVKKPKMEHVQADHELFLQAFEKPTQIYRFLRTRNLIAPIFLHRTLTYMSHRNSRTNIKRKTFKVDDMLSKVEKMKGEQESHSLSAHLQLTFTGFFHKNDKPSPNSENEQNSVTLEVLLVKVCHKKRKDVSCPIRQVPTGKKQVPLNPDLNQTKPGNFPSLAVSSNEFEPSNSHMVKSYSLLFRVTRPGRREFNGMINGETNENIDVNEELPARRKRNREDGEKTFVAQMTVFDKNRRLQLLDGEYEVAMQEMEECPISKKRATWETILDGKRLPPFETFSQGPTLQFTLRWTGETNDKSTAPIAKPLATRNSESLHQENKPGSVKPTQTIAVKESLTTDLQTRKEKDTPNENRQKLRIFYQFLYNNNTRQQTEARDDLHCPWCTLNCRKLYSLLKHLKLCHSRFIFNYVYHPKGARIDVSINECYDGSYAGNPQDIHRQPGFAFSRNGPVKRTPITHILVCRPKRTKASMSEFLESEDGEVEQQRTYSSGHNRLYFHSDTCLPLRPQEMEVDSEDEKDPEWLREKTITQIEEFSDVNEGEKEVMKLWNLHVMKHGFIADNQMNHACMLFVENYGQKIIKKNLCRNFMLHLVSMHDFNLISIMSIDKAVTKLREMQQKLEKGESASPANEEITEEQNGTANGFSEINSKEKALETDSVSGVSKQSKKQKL
Chain of EZH2 (Q09028 whole entry partner): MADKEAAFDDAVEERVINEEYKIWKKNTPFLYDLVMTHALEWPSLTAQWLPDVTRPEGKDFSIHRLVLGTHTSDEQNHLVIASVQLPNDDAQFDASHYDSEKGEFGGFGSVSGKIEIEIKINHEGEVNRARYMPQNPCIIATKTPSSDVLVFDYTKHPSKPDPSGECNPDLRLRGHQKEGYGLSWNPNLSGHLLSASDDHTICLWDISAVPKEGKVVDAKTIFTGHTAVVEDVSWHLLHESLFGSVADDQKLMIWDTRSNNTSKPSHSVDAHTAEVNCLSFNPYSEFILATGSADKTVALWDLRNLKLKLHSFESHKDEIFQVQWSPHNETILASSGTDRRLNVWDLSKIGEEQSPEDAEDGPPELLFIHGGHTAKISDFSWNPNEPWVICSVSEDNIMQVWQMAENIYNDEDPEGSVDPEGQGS
Chain of EZH2 (Q6ZN18 whole entry partner): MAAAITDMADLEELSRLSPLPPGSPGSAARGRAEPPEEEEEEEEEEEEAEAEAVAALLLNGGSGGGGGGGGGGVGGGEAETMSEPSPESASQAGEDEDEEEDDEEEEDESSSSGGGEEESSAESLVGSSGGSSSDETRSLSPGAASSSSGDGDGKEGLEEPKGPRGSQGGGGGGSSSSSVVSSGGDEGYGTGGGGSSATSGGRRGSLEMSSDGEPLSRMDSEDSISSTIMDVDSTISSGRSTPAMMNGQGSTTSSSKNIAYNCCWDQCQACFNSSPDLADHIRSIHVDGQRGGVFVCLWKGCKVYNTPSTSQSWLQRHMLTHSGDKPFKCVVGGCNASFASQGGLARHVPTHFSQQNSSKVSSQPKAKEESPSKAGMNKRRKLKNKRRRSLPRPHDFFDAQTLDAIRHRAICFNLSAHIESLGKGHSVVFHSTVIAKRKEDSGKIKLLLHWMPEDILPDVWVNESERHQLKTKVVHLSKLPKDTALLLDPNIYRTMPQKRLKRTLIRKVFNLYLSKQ

As to `CCN(c1cc(-c2ccc(NC(=O)c3cc(C(C)C)c(O)cc3O)cc2)cc(C(=O)NCc2c(C)cc(C)[nH]c2=O)c1C)C1CCOCC1` [Compound 1, 4′-(2,4-Fihydroxy-5-isopropylbenzamido)-N-((4,6-dimethyl-2-oxo-1,2-dihydropyridin-3-yl)methyl)-5-(ethyl(tetrahydro-2H-pyran-4-yl)amino)-4-methyl-[1,1′-biphenyl]-3-carboxamide], the IC50 in experiment [1] is 0.00614 µM. Also, in experiment [2], the “cell growth inhibitory effects (in words)” value is “unable to exert cell growth inhibitory effects”. Also, the “HSP90 inhibitory potential (in words)” value in experiment [3] is on record as “devoid of HSP90 inhibitory potential”.
Turning to `CCN(c1cc(-c2cccc(NC(=O)c3cc(C(C)C)c(O)cc3O)c2)cc(C(=O)NCc2c(C)cc(C)[nH]c2=O)c1C)C1CCOCC1` [Compound 2, 3′-(2,4-Fihydroxy-5-isopropylbenzamido)-N-((4,6-dimethyl-2-oxo-1,2-dihydropyridin-3-yl)methyl)-5-(ethyl(tetrahydro-2H-pyran-4-yl)amino)-4-methyl-[1,1′-biphenyl]-3-carboxamide], the IC50 in experiment [1] stood at 0.00206 µM. In addition, the “fold more potent in inhibiting EZH2 than counterpart 1” value in experiment [1] (compound 2 vs 1) amounted to 3 fold. For the same compound, in experiment [2], the “cell growth inhibitory effects (in words)” value is given as “unable to exert cell growth inhibitory effects”. Also, the “HSP90 inhibitory potential (in words)” value in experiment [3] is “devoid of HSP90 inhibitory potential”.
Regarding `CCN(c1cc(-c2ccc(N(C)C(=O)c3cc(C(C)C)c(O)cc3O)cc2)cc(C(=O)NCc2c(C)cc(C)[nH]c2=O)c1C)C1CCOCC1` [Compound 3, 4′-(2,4-Dihydroxy-5-isopropyl-N-methylbenzamido)-N-((4,6-dimethyl-2-oxo-1,2-dihydropyridin-3-yl)methyl)-5-(ethyl(tetrahydro-2H-pyran-4-yl)amino)-4-methyl-[1,1′-biphenyl]-3-carboxamide], the figures for the IC50 in experiment [1], in experiment [2] and in experiment [3] were 0.00721 µM, 27.4 ± 1.58 µM and 0.343 µM, respectively.
As to `CCN(C(=O)c1cc(C(C)C)c(O)cc1O)c1ccc(-c2cc(C(=O)NCc3c(C)cc(C)[nH]c3=O)c(C)c(N(CC)C3CCOCC3)c2)cc1` [Compound 4, N-((4,6-Dimethyl-2-oxo-1,2-dihydropyridin-3-yl)methyl)-5-(ethyl(tetrahydro-2H-pyran-4-yl)amino)-4′-(N-ethyl-2,4-dihydroxy-5-isopropylbenzamido)-4-methyl-[1,1′-biphenyl]-3-carboxamide], the IC50 in experiment [1] was determined as 0.00735 µM; in experiment [3], 0.823 µM.
`CCCN(C(=O)c1cc(C(C)C)c(O)cc1O)c1ccc(-c2cc(C(=O)NCc3c(C)cc(C)[nH]c3=O)c(C)c(N(CC)C3CCOCC3)c2)cc1` [Compound 5, 4′-(2,4-Dihydroxy-5-isopropyl-N-propylbenzamido)-N-((4,6-dimethyl-2-oxo-1,2-dihydropyridin-3-yl)methyl)-5-(ethyl(tetrahydro-2H-pyran-4-yl)amino)-4-methyl-[1,1′-biphenyl]-3-carboxamide] gave an IC50 in experiment [1] of 0.0218 µM.
With `CCN(c1cc(-c2ccc(N(Cc3ccccc3)C(=O)c3cc(C(C)C)c(O)cc3O)cc2)cc(C(=O)NCc2c(C)cc(C)[nH]c2=O)c1C)C1CCOCC1` [Compound 6, 4′-(N-Benzyl-2,4-dihydroxy-5-isopropylbenzamido)-N-((4,6-dimethyl-2-oxo-1,2-dihydropyridin-3-yl)methyl)-5-(ethyl(tetrahydro-2H-pyran-4-yl)amino)-4-methyl-[1,1′-biphenyl]-3-carboxamide], the figures for the IC50 in experiment [1] and in experiment [3] were 0.0117 µM and > 10 µM, respectively.
Regarding `CCN(C(=O)c1cc(C(C)C)c(O)cc1O)c1cccc(-c2cc(C(=O)NCc3c(C)cc(C)[nH]c3=O)c(C)c(N(CC)C3CCOCC3)c2)c1` [Compound 8, N-((4,6-Dimethyl-2-oxo-1,2-dihydropyridin-3-yl)methyl)-5-(ethyl(tetrahydro-2H-pyran-4-yl)amino)-3′-(N-ethyl-2,4-dihydroxy-5-isopropylbenzamido)-4-methyl-[1,1′-biphenyl]-3-carboxamide], the IC50 in experiment [1] worked out at 0.0366 µM; in experiment [2], 10.8 ± 1 µM; in experiment [3] it was 0.0636 µM.
Turning to `CCCN(C(=O)c1cc(C(C)C)c(O)cc1O)c1cccc(-c2cc(C(=O)NCc3c(C)cc(C)[nH]c3=O)c(C)c(N(CC)C3CCOCC3)c2)c1` [Compound 9, 3′-(2,4-Dihydroxy-5-isopropyl-N-propylbenzamido)-N-((4,6-dimethyl-2-oxo-1,2-dihydropyridin-3-yl)methyl)-5-(ethyl(tetrahydro-2H-pyran-4-yl)amino)-4-methyl-[1,1′-biphenyl]-3-carboxamide], the results for the half-maximal inhibitory concentration (IC50) in experiment [1] and in experiment [3] were 0.0401 µM and 9.33 µM, respectively. The “cell growth inhibitory effects (in words)” value in experiment [2] was “unable to exert cell growth inhibitory effects”.
For `CCN(c1cc(-c2cccc(N(Cc3ccccc3)C(=O)c3cc(C(C)C)c(O)cc3O)c2)cc(C(=O)NCc2c(C)cc(C)[nH]c2=O)c1C)C1CCOCC1` [Compound 10, 3′-(N-Benzyl-2,4-dihydroxy-5-isopropylbenzamido)-N-((4,6-dimethyl-2-oxo-1,2-dihydropyridin-3-yl)methyl)-5-(ethyl(tetrahydro-2H-pyran-4-yl)amino)-4-methyl-[1,1′-biphenyl]-3-carboxamide], in that order: 0.641 µM, 2.84 µM and “unable to exert cell growth inhibitory effects”.
`CCN(c1cc(-c2ccc(CN3CCOCC3)cc2)cc(C(=O)NCc2c(C)cc(C)[nH]c2=O)c1C)C1CCOCC1` [Tazemetostat, reference compound]: in experiment [4], the tumor growth entry is “failed to suppress tumor growth”. In addition, in experiment [2], the “cell growth inhibitory effects (in words)” value is listed as “unable to exert cell growth inhibitory effects”.
